Test system: not listed separately
Experiment: Metabolic stability with human hepatocytes
Assay type: in vitro ADME
Conditions: human hepatocyte suspension, 1 μM, scaled with well stirred model
Method: Assay for the Determination of Metabolic Stability with Human Hepatocytes
The metabolic degradation of the test compound is assayed in a human hepatocyte suspension. Human hepatocytes (typically cryopreserved) are incubated in an appropriate buffer system (e.g. Dulbecco's modified eagle medium plus 3.5 μg glucagon/500 mL, 2.5 mg insulin/500 mL and 3.75 mg/500 mL hydrocortison) containing 5% species serum. Following a (typically) […] preincubation in an incubator (37° C., 10% CO2), 5 μl of test compound solution (80 μM; from 2 mM stock solution in DMSO diluted 1:25 with medium) are added into 395 μl hepatocyte suspension (cell density in the range 0.25-5*10^6 cells/mL, typically 1*10^6 cells/mL; final concentration of test compound 1 μM, final DMSO concentration […]). The cells are incubated for six hours (incubator, orbital shaker) and samples (25 μl) are taken at 0, 0.5, 1, 2, 4 and 6 hours. Samples are transferred into acetonitrile and pelleted by centrifugation (5 min). The supernatant is transferred to a new 96-deepwell plate, evaporated under nitrogen and resuspended. The decline of parent compound is analyzed by LC-MS/MS.
The intrinsic clearance CL_[…] is calculated as follows: CL_[…]=Dose/AUC=(C0/CD)/(AUD+clast/k)*1′000/60 (C0: initial concentration in the incubation [μM], CD: cell density of vital cells [10^6 cells/mL], AUD: area under the data [μM*h], clast: concentration of last data point [μM], k: slope of the regression line for parent decline [h^−1])
The calculated in vitro hepatic intrinsic clearance can be scaled up to the intrinsic in vivo hepatic clearance and used to predict hepatic in vivo blood clearance (CL) by the use of a is liver model (well stirred model): CL_[…]_INVIVO [ml/min/kg]=(CL_[…] [μL/min/10^6 cells]* hepatocellularity[10^6 cells/g liver]*liver factor[g/kg bodyweight])/1′000 CL[ml/min/kg]=CL_[…]_INVIVO [ml/min/kg]*hepatic blood flow [ml/min/kg]/(CL_[…]_INVIVO [ml/min/kg]+hepatic blood flow [ml/min/kg]) Qh[%]=CL[ml/min/kg]/hepatic blood flow[ml/min/kg]) (Hepatocellularity, human: 120*10^6 cells/g liver; lver factor, human: 25.7 g/kg bodyweight; blood flow, human: 21 ml/(min*kg))
The predicted human hepatic in vivo blood clearance (CL) of selected compounds in the metabolic stability assay described above are listed in Table 16.
For `CS(=O)(=O)c1cc(C#N)ccc1[C@H]1NC(=O)N(c2cccc(C(F)(F)F)c2)C2=C1C(=O)CCC2` (single isomer, unassigned) [Example 18A], the “CL (predicted human hepatic in vivo blood clearance)” value was 0 mL/min/kg.
For `CS(=O)(=O)c1cc(C#N)ccc1[C@H]1NC(=O)N(c2cccc(C(F)F)c2)C2=C1C(=O)CCC2` (single isomer, unassigned) [Example 19A], the “CL (predicted human hepatic in vivo blood clearance)” value was 0 mL/min/kg.
In the case of `CNC(=O)N1C(=O)N(c2cccc(C(F)(F)F)c2)C2=C(C(=O)CCC2)[C@H]1c1ccc(C#N)cc1S(C)(=O)=O` (single isomer, unassigned) [Example 47A], the “CL (predicted human hepatic in vivo blood clearance)” value is reported as 0 mL/min/kg.
With `CCS(=O)(=O)c1cc(C#N)ccc1[C@H]1NC(=O)N(c2cccc(C(F)(F)F)c2)C2=C1C(=O)CCC2` (single isomer, unassigned) [Example 54A] the “CL (predicted human hepatic in vivo blood clearance)” value was 2 mL/min/kg.

Molecular target: T1, neutrophil elastase (Homo sapiens, UniProt P08246)
T1 sequence (P08246 30-247 limits assumed): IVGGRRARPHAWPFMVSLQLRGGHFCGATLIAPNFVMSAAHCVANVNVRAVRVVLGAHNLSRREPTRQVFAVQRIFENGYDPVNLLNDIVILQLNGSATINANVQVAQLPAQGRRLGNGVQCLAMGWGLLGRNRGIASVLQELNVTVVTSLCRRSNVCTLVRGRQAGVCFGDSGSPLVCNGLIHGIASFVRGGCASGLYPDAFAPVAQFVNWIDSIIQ
Experiment: Human Neutrophil Elastase Assay
Assay type: biochemical
Set-up: purchased Calbiochem 324681
Conditions: substrate MeOSuc-Ala-Ala-Pro-Val-AMC, pH 7.5, room temperature
In short: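 Readout: AMC fluorescence (ex 380, em 460 nm) after 60 min room-temperature reaction with 250 nM MeOSuc-AAPV-AMC, following 15 min compound–enzyme preincubation. Buffer: Tris/NaCl pH 7.5, 0.01% BSA.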
For `CC(C)NC(=O)N1C(=O)N(c2cccc(C(F)(F)F)c2)C2=C(C(=O)CCC2)C1c1ccc(C#N)cc1` (centres unmarked) [Example 70.4], the IC50 was 1.4 nM.
`N#Cc1ccc(C2C3=C(CCCC3=O)N(c3cccc(C(F)(F)F)c3)C(=O)N2C(=O)NCC2CC2)cc1` (centres unmarked) [Example 70.5] showed an IC50 of 1.4 nM.
Work on `N#Cc1ccc(C2C3=C(CCCC3=O)N(c3cccc(C(F)(F)F)c3)C(=O)N2C(=O)NCC(F)F)cc1` (centres unmarked) [Example 70.6] yielded an IC50 of less than 1 nM.
Compound `N#Cc1ccc(C2C3=C(CCCC3=O)N(c3cccc(C(F)(F)F)c3)C(=O)N2C(=O)NCC2(O)CC2)cc1` (centres unmarked) [Example 70.7] has an IC50 of 1.4 nM.
Compound `N#Cc1ccc(C2C3=C(CCCC3=O)N(c3cccc(C(F)(F)F)c3)C(=O)N2C(=O)NC2CCOC2)cc1` (centres unmarked) [Example 70.8] has an IC50 of less than 1 nM.
For `CC(C)(CO)NC(=O)N1C(=O)N(c2cccc(C(F)(F)F)c2)C2=C(C(=O)CCC2)C1c1ccc(C#N)cc1` (centres unmarked) [Example 70.10], the IC50 was 2.4 nM.
Work on `N#Cc1ccc(C2C3=C(CCCC3=O)N(c3cccc(C(F)(F)F)c3)C(=O)N2C(=O)NCC2(O)CCC2)cc1` (centres unmarked) [Example 70.13] yielded an IC50 of 2.1 nM.
For `N#Cc1ccc(C2C3=C(CCCC3=O)N(c3cccc(C(F)(F)F)c3)C(=O)N2C(=O)NC2CCOCC2)cc1` (centres unmarked) [Example 70.14], the IC50 was less than 1 nM.
For `N#Cc1ccc(C2C3=C(CCCC3=O)N(c3cccc(C(F)(F)F)c3)C(=O)N2C(=O)NCC2CC(O)C2)cc1` (centres unmarked) [Example 70.15], the IC50 was less than 1 nM.
In the case of `CC(C)(O)CCNC(=O)N1C(=O)N(c2cccc(C(F)(F)F)c2)C2=C(C(=O)CCC2)C1c1ccc(C#N)cc1` (centres unmarked) [Example 70.16], the IC50 is reported as 1.1 nM.
With `N#Cc1ccc(C2C3=C(CCCC3=O)N(c3cccc(C(F)(F)F)c3)C(=O)N2C(=O)NC2CS(=O)(=O)C2)cc1` (centres unmarked) [Example 70.18] the IC50 was less than 1 nM.
With `N#Cc1ccc(C2C3=C(CCCC3=O)N(c3cccc(C(F)(F)F)c3)C(=O)N2C(=O)NC2CCS(=O)(=O)C2)cc1` (centres unmarked) [Example 70.19] the IC50 was less than 1 nM.
Compound `N#Cc1ccc(C2C3=C(CCCC3=O)N(c3cccc(C(F)(F)F)c3)C(=O)N2C(=O)NC2CCCS(=O)(=O)C2)cc1` (centres unmarked) [Example 70.20] has an IC50 of less than 1 nM.
With `N#Cc1ccc(C2C3=C(CCCC3=O)N(c3cccc(C(F)(F)F)c3)C(=O)N2C(=O)NC2CC[S+]([O-])CC2)cc1` (centres unmarked) [Example 71, 4-(4-Cyanophenyl)-2,5-dioxo-N-(1-oxo-hexahydro-1λ^4-thiopyran-4-yl)-1-(3-(trifluoromethyl)phenyl)-1,2,5,6,7,8-hexahydroquinazoline-3(4H)-carboxamide] the IC50 was less than 1 nM.
With `N#Cc1ccc(C2C3=C(CCCC3=O)N(c3cccc(C(F)(F)F)c3)C(=O)N2C(=O)NC2CCS(=N)(=O)CC2)cc1` (centres unmarked) [Example 72, 4-(4-Cyanophenyl)-2,5-dioxo-N-(1-imino-1-oxo-hexahydro-1λ^6-thiopyran-4-yl)-1-(3-(trifluoromethyl)phenyl)-1,2,5,6,7,8-hexahydroquinazoline-3(4H)-carboxamide] the IC50 was less than 1 nM.
In the case of `CNC(=O)N1C(=O)N(c2cccc(C(F)(F)F)c2)C2=C(C(=O)CCC2)C1c1ccc(C#N)cc1C` (centres unmarked) [Example 73, 4-(4-Cyano-2-methylphenyl)-N-methyl-2,5-dioxo-1-(3-(trifluoromethyl)phenyl)-1,2,5,6,7,8-hexahydroquinazoline-3(4H)-carboxamide], the IC50 is reported as less than 1 nM.
With `CCNC(=O)N1C(=O)N(c2cccc(C(F)(F)F)c2)C2=C(C(=O)CCC2)C1c1ccc(C#N)cc1C` (centres unmarked) [Example 74, 4-(4-Cyano-2-methylphenyl)-N-ethyl-2,5-dioxo-1-(3-(trifluoromethyl)phenyl)-1,2,5,6,7,8-hexahydroquinazoline-3(4H)-carboxamide] the IC50 was less than 1 nM.
`CS(=O)(=O)c1cc(C#N)ccc1[C@@H]1C2=C(CCCC2=O)N(c2cccc(C(F)(F)F)c2)C(=O)N1C(=O)NCC#N` [Example 75.1] showed an IC50 of less than 1 nM.
For `CS(=O)(=O)c1cc(C#N)ccc1[C@@H]1C2=C(CCCC2=O)N(c2cccc(C(F)(F)F)c2)C(=O)N1C(=O)NC1CC1` [Example 75.2], the IC50 was less than 1 nM.
Compound `CC(C#N)NC(=O)N1C(=O)N(c2cccc(C(F)(F)F)c2)C2=C(C(=O)CCC2)[C@H]1c1ccc(C#N)cc1S(C)(=O)=O` (some centres unmarked) [Example 75.4] has an IC50 of less than 1 nM.
`CS(=O)(=O)c1cc(C#N)ccc1[C@@H]1C2=C(CCCC2=O)N(c2cccc(C(F)(F)F)c2)C(=O)N1C(=O)NC1COC1` [Example 75.5] gave an IC50 of less than 1 nM.
With `COCCNC(=O)N1C(=O)N(c2cccc(C(F)(F)F)c2)C2=C(C(=O)CCC2)[C@H]1c1ccc(C#N)cc1S(C)(=O)=O` [Example 75.6] the IC50 was less than 1 nM.
In the case of `CS(=O)(=O)c1cc(C#N)ccc1[C@@H]1C2=C(CCCC2=O)N(c2cccc(C(F)(F)F)c2)C(=O)N1C(=O)NC1(C#N)CC1` [Example 75.8], the IC50 is reported as less than 1 nM.
In the case of `CS(=O)(=O)c1cc(C#N)ccc1[C@@H]1C2=C(CCCC2=O)N(c2cccc(C(F)(F)F)c2)C(=O)N1C(=O)NC1CCOC1` (some centres unmarked) [Example 75.10], the IC50 is reported as less than 1 nM.
Work on `CS(=O)(=O)c1cc(C#N)ccc1[C@@H]1C2=C(CCCC2=O)N(c2cccc(C(F)(F)F)c2)C(=O)N1C(=O)NC1CC(O)C1` (some centres unmarked) [Example 75.11] yielded an IC50 of less than 1 nM.
For `CC(C)(O)CNC(=O)N1C(=O)N(c2cccc(C(F)(F)F)c2)C2=C(C(=O)CCC2)[C@H]1c1ccc(C#N)cc1S(C)(=O)=O` [Example 75.12], the IC50 was less than 1 nM.
For `N#Cc1ccc(C2C3=C(CCCC3=O)N(c3ccnc(C(F)(F)F)c3)C(=O)N2C(=O)NC2CC2)cc1` (centres unmarked) [Example 76, 4-(4-Cyanophenyl)-N-cyclopropyl-2,5-dioxo-1-(2-(trifluoromethyl)pyridin-4-yl)-1,2,5,6,7,8-hexahydroquinazoline-3(4H)-carboxamide], the IC50 was 1.7 nM.
In the case of `CNC(=O)N1C(=O)N(c2ccnc(C(F)(F)F)c2)C2=C(C(=O)CCC2)C1c1ccc(C#N)cc1` (centres unmarked) [Example 76.1], the IC50 is reported as 4.4 nM.
In the case of `CCNC(=O)N1C(=O)N(c2ccnc(C(F)(F)F)c2)C2=C(C(=O)CCC2)C1c1ccc(C#N)cc1` (centres unmarked) [Example 76.2], the IC50 is reported as 1.2 nM.
For `CC(C)NC(=O)N1C(=O)N(c2ccnc(C(F)(F)F)c2)C2=C(C(=O)CCC2)C1c1ccc(C#N)cc1` (centres unmarked) [Example 76.3], the IC50 was 1.9 nM.
Work on `CC(C)(O)CNC(=O)N1C(=O)N(c2ccnc(C(F)(F)F)c2)C2=C(C(=O)CCC2)C1c1ccc(C#N)cc1` (centres unmarked) [Example 76.4] yielded an IC50 of 5.5 nM.

Source: patent US9115093B2, “Substituted bicyclic dihydropyrimidinones and their use as inhibitors of neutrophil elastase activity” (Boehringer Ingelheim International GmbH, priority 2013, dated 2015)
